In patent publication US11718618B2, “Substituted pyrido[2,1-a]isoquinolines as VMAT2 inhibitors” (priority 2021, dated 2023):
Like-named read-outs stand apart in the source and are kept apart here.

Legend:
[1] = Stability of compounds in human liver microsomes; assay type: in vitro ADME; details: for CLint scaled at 0.5 μM / half-life at 0.5 μM: both sexes, pH 7.4; for CLint scaled at 0.5 μM: liver microsomes, calculated from HLM half-life, read-out: HLM Scaled Intrinsic Clearance; for CLint scaled at 0.5 μM / Predicted Max. Bioavailability (% F) / HLM Predicted Systemic Clearance: human; for half-life at 0.5 μM: 0.5 μM compound, 0.5 mg/mL human liver microsomes, 37° C., maxed at 420 minutes, read-out: HLM Elimination half-life (t1/2, min); for Predicted Max. Bioavailability (% F): predicted from HLM data; for HLM Predicted Systemic Clearance: scaled from HLM half-life (Obach method)
Procedure: A test compound (0.5 μM) was incubated with pooled mixed gender liver microsomes from humans (0.5 mg/mL total protein) at 37° C. in the presence of an NADPH-generating system containing 50 mM, pH 7.4 potassium phosphate buffer, 3 mM magnesium chloride, 1 mM EDTA, 1 mM NADP, 5 mM glusose-6-phosphate, and 1 Unit/mL glucose-6-phosphate dehydrogenase. All concentrations were relative to the final incubation volume of 125 μL. Incubations were conducted at 37° C. for 0, 5, 10, 20, 40, and 60 minutes in a water bath and terminated by rapid mixing with 150 μL of ice-cold acetonitrile containing internal standard. Precipitated proteins were removed by centrifugation prior to LC-MS/MS analysis. Aliquots of the resulting supernatant fractions were analyzed by LC-MS/MS monitoring for depletion of parent compound. The resultant peak area ratio versus time data was fitted to a non-linear regression using XLfit Scientific Curve Fitting Software (IDBS Ltd., Surrey, UK) and the elimination half-life (t1/2, min) was calculated from the slope. […] Additional values calculated included predicted extraction ratio and predicted maximum bioavailability.

human VMAT2 = human VMAT2 (Homo sapiens (Human), UniProt Q05940); assay: VMAT2 radioligand binding, 3H-dihydrotetrabenazine competition on human platelet homogenate
Chain of human VMAT2 (Q05940 whole entry): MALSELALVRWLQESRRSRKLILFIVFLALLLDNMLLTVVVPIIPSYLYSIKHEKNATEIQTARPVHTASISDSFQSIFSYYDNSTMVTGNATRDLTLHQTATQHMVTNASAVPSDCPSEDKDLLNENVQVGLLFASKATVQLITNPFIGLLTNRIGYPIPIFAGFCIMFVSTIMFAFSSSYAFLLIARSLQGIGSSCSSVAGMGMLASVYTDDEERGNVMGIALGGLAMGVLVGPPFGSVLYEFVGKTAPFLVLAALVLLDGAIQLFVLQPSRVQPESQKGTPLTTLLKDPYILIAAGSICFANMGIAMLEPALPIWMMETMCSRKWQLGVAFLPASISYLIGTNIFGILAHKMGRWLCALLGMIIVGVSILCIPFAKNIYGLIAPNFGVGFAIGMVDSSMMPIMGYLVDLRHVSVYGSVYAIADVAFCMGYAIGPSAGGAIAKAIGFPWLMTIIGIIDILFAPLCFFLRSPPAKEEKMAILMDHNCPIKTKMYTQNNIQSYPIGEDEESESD
Procedure, shortened: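 Ki from scintillation counting of filter-bound ³H-dihydrotetrabenazine (10 nM) after 90 min, 25 °C incubation with twelve concentrations of compound. Membranes: human platelet homogenate, 30 μg protein per well; buffer DPBS, 1 mM EDTA, pH 7.4.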

[2] = 10 nM 3H-dihydrotetrabenazine, human platelet homogenate, 25° C., 90 minutes, read-out: VMAT2 Ki

Row | Compound | CLint scaled at 0.5 μM [1] [mL/min/kg] | half-life at 0.5 μM [1] [min] | Predicted Max. Bioavailability (% F) [1] [% F] | HLM Predicted Systemic Clearance [1] [mL/min/kg] | Ki (human VMAT2; [2]) [nM] | Ki (human VMAT2) [nM]
1 | COCCOc1cc2c(cc1OC)[C@H]1C[C@@H](O)[C@H](CC(C)(C)C)CN1CC2 [Compound 4-26, (2R,3R,11bR)-3-(2,2-dimethylpropyl)-10-methoxy-9-(2-methoxyethoxy)-1H,2H,3H,4H,6H,7H,11bH-pyrido[2,1-a]isoquinolin-2-ol] | 14.2 | 88 | 58 | 8.32 | 14 | –
2 | COc1cc2c(cc1OCCOC1(C#N)CCOCC1)CCN1C[C@@H](CC(C)(C)C)[C@H](O)C[C@H]21 [Compound 4-41, 4-(2-{[(2R,3R,11bR)-3-(2,2-dimethylpropyl)-2-hydroxy-10-methoxy-1H,2H,3H,4H,6H,7H,11bH-pyrido[2,1-a]isoquinolin-9-yl]oxy}ethoxy)oxane-4-carbonitrile] | 45.2 | 28 | 31 | 13.87 | 238 | –
3 | COc1cc2c(cc1OCc1cccc(C#N)n1)CCN1C[C@@H](CC(C)(C)C)[C@H](O)C[C@H]21 [Compound 4-77, 6-({[(2R,3R,11bR)-3-(2,2-dimethylpropyl)-2-hydroxy-10-methoxy-1H,2H,3H,4H,6H,7H,11bH-pyrido[2,1-a]isoquinolin-9-yl]oxy}methyl)pyridine-2-carbonitrile] | 8.01 | 156 | 71 | 5.72 | 85 | –
4 | COc1cc2c(cc1O[C@H]1CCOC1)CCN1C[C@@H](CC(C)(C)C)[C@H](O)C[C@H]21 [Compound 4-54, (2R,3R,11bR)-3-(2,2-dimethylpropyl)-10-methoxy-9-[(3S)-oxolan-3-yloxy]-1H,2H,3H,4H,6H,7H,11bH-pyrido[2,1-a]isoquinolin-2-ol] | 7.59 | 164 | 73 | 5.5 | 12 | –
5 | COc1cc2c(cc1OC)[C@H]1C[C@H](O)[C@H](CC(C)(C)C)CN1CC2 [Compound 5-2, (2S,3R,11bR)-3-(2,2-dimethylpropyl)-9,10-dimethoxy-1H,2H,3H,4H,6H,7H,11bH-pyrido[2,1-a]isoquinolin-2-ol] | 32.6 | 38 | 38 | 12.39 | 50 | –
6 | COc1cc2c(cc1OCCOC(C)(C)C#N)CCN1C[C@@H](CC(C)(C)C)[C@H](O)C[C@H]21 [Compound 4-44, 2-(2-{[(2R,3R,11bR)-3-(2,2-dimethylpropyl)-2-hydroxy-10-methoxy-1H,2H,3H,4H,6H,7H,11bH-pyrido[2,1-a]isoquinolin-9-yl]oxy}ethoxy)-2-methylpropanenitrile] | 26.9 | 46 | 43 | 11.47 | 2.4 | –
7 | COc1cc2c(cc1OC1COC1)CCN1C[C@@H](CC(C)(C)C)[C@H](O)C[C@H]21 [Compound 4-30, (2R,3R,11bR)-3-(2,2-dimethylpropyl)-10-methoxy-9-(oxetan-3-yloxy)-1H,2H,3H,4H,6H,7H,11bH-pyrido[2,1-a]isoquinolin-2-ol] | ≤ 2.97 | ≥ 420 | ≥87 | ≤2.59 | 12 | –
8 | COc1cc2c(cc1OC(C)C)CCN1C[C@@H](CC(C)(C)C)[C@H](O)C[C@H]21 [Compound 4-38, (2R,3R,11bR)-3-(2,2-dimethylpropyl)-10-methoxy-9-(propan-2-yloxy)-1H,2H,3H,4H,6H,7H,11bH-pyrido[2,1-a]isoquinolin-2-ol] | 21.5 | 58 | 48 | 10.35 | 3.7 | –
9 | COc1cc2c(cc1OCC1(C#N)CCC1)CCN1C[C@@H](CC(C)(C)C)[C@H](O)C[C@H]21 [Compound 4-42, 1-({[(2R,3R,11bR)-3-(2,2-dimethylpropyl)-2-hydroxy-10-methoxy-1H,2H,3H,4H,6H,7H,11bH-pyrido[2,1-a]isoquinolin-9-yl]oxy}methyl)cyclobutane-1-carbonitrile] | 24.3 | 51 | 45 | 10.98 | 35 | –
10 | COc1cc2c(cc1OCCC1(C#N)CC1)CCN1C[C@@H](CC(C)(C)C)[C@H](O)C[C@H]21 [Compound 4-45, 1-(2-{[(2R,3R,11bR)-3-(2,2-dimethylpropyl)-2-hydroxy-10-methoxy-1H,2H,3H,4H,6H,7H,11bH-pyrido[2,1-a]isoquinolin-9-yl]oxy}ethyl)cyclopropane-1-carbonitrile] | 9.7 | 129 | 67 | 6.53 | 7.3 | –
11 | COc1cc2c(cc1OCC1(CC#N)CC1)CCN1C[C@@H](CC(C)(C)C)[C@H](O)C[C@H]21 [Compound 4-46, 2-[1-({[(2R,3R,11bR)-3-(2,2-dimethylpropyl)-2-hydroxy-10-methoxy-1H,2H,3H,4H,6H,7H,11bH-pyrido[2,1-a]isoquinolin-9-yl]oxy}methyl)cyclo-propyl]acetonitrile] | 45.1 | 28 | 31 | 13.86 | 25 | –
12 | COc1cc2c(cc1OCCOC1(C#N)CCC1)CCN1C[C@@H](CC(C)(C)C)[C@H](O)C[C@H]21 [Compound 4-23, 1-(2-{[(2R,3R,11bR)-3-(2,2-dimethylpropyl)-2-hydroxy-10-methoxy-1H,2H,3H,4H,6H,7H,11bH-pyrido[2,1-a]isoquinolin-9-yl]oxy}ethoxy)cyclobutane-1-carbonitrile] | 58.5 | 21 | 25 | 14.9 | 0.41 | –
13 | COc1cc2c(cc1OCCOC(C#N)C1CC1)CCN1C[C@@H](CC(C)(C)C)[C@H](O)C[C@H]21 (stereo partly drawn) [Compound 4-43, 2-(2-{[(2R,3R,11bR)-3-(2,2-dimethylpropyl)-2-hydroxy-10-methoxy-1H,2H,3H,4H,6H,7H,11bH-pyrido[2,1-a]isoquinolin-9-yl]oxy}ethoxy)-2-cyclopropylacetonitrile] | 68.8 | 18 | 23 | 15.5 | 4.8 | –
14 | CC[C@@H](O)COc1cc2c(cc1OC)[C@H]1C[C@@H](O)[C@H](CC(C)(C)C)CN1CC2 [Compound 4-58, (2R,3R,11bR)-3-(2,2-dimethylpropyl)-9-[(2R)-2-hydroxybutoxy]-10-methoxy-1H,2H,3H,4H,6H,7H,11bH-pyrido[2,1-a]isoquinolin-2-ol] | 5.99 | 208 | 77 | 4.61 | – | 1.1
15 | COc1cc2c(cc1OCC1(O)CCC1)CCN1C[C@@H](CC(C)(C)C)[C@H](O)C[C@H]21 [Compound 4-25, (2R,3R,11bR)-3-(2,2-dimethylpropyl)-9-[(1-hydroxycyclobutyl)methoxy]-10-methoxy-1H,2H,3H,4H,6H,7H,11bH-pyrido[2,1-a]isoquinolin-2-ol] | 11.4 | 109 | 64 | 7.26 | 5.5 | –
16 | COc1cc2c(cc1OCC(C)(O)C(F)(F)F)CCN1C[C@@H](CC(C)(C)C)[C@H](O)C[C@H]21 (stereo partly drawn) [Compound 4-66, (2R,3R,11bR)-3-(2,2-dimethylpropyl)-10-methoxy-9-(3,3,3-trifluoro-2-hydroxy-2-methylpropoxy)-1H,2H,3H,4H,6H,7H,11bH-pyrido[2,1-a]isoquinolin-2-ol] | ≤ 2.97 | ≥ 420 | ≥87 | ≤2.59 | 10 | –
17 | COc1cc2c(cc1OCCOCC#N)CCN1C[C@@H](CC(C)(C)C)[C@H](O)C[C@H]21 [Compound 4-70, 2-(2-{[(2R,3R,11bR)-3-(2,2-dimethylpropyl)-2-hydroxy-10-methoxy-1H,2H,3H,4H,6H,7H,11bH-pyrido[2,1-a]isoquinolin-9-yl]oxy}ethoxy)acetonitrile] | 11.4 | 110 | 64 | 7.25 | 36 | –
